# Assay results: patent US20030176381A1, “Hyaluronic acid in the treatment of cancer” (priority 2002, published 2003)
# What was measured:
# [1] = test system: PC-3 human prostate cancer cells; experiment: MTT cell proliferation, PC-3; assay type: cell-based; conditions: 48 h
# Protocol: (§1) Cell proliferation was measured using dimethylthiazoldiphenyltetrazolium (MTT) reduction (Mosman et al. J. Immunol. Methods 65:55, 1983). Unless otherwise stated, 100 Al of 5 mg of MTT (Sigma-Aldrich, St. Louis, Mo., USA) dissolved in 1 ml of PBS was added into each well. After 4 h, medium was removed from each well, 1.0 ml of acid-isopropanol (0.04 N HCI in isopropanol) was added and reduced MTT was solubilized by mixing. Absorbency of the reaction product was measured at a wavelength of 570 nm using a multiplate spectrophotometer reader (Elx800 Model, Bio-TEK Instruments Inc., Winooski, Vt., USA).
# (§2) Unless stated otherwise 1.0 x 10^5 cells/ml were seeded in 6-well flat-bottom tissue culture plates and were maintained for 48 h at 370 C in a 5% CO2 atmosphere.
# (§3) PC-3, LNCAP and Du-145 human prostate cancer cells; MCF-7 human breast cancer cells; HT-1080 human fibrosarcoma cancer cells; B16F1 murine melanoma cells; and, UMUC-3, RT-4, HT-1376 and T-24 human bladder cancer cells were incubated with 0.8, 8.0 and 80 μg/ml of 5.0-7.5 x 10^5 Da HA (Table 2).
# (§4) PC-3. LNCaP and Du-145 human prostate cancer cells were incubated with 8.0 jg/ml of 5.0-7.5 x 105 Da HA or of <1.5 x 10^4 Da HA (Table 3).
# (§5) Unless stated otherwise 2.0 x 10^4 cells/ml were seeded in 24-well plates and were maintained for 48 h at 370 C in a 5% CO2 atmosphere. MTT was used at 50 μl per well.
# (§6) T-24 human bladder cancer cells, PC-3 and Du-145 human prostate cancer cells, and MCF-7 human breast cancer cell were incubated with saline or with 80.0 jg/ml of 5.0-7.5 x 105 Da HA +1.0 μg/ml of M-DNA (Table 4).
# (§7) CD44 expression and the inhibition of proliferation by 5.0-7.5 x 10^5 Da HA were measured using Jurkat T cell leukemia cells; MCF-7 human breast cancer cells; RT-4, T-24, HT-1376 and UMUC-3 human bladder cancer cells; and, PC-3, Du-145 and LNCaP prostate cancer cells (Table 8)
# [2] = test system: LNCaP human prostate cancer cells; experiment: MTT cell proliferation, LNCaP; assay type: cell-based; conditions: 48 h
# Protocol: as §1, §2, §3, §4, §7
# [3] = test system: Du-145 human prostate cancer cells; experiment: MTT cell proliferation, Du-145; assay type: cell-based; conditions: HA 8.0 μg/ml, 48 h
# Protocol: as §1, §2, §3, §4, §5, §6, §7
# [4] = test system: RT-4 human bladder cancer cells; experiment: MTT cell proliferation, RT-4; assay type: cell-based
# Protocol: Cell proliferation was measured using dimethylthiazoldiphenyltetrazolium (MTT) reduction (Mosman et al. J. Immunol. Methods 65:55, 1983). Unless otherwise stated, 100 Al of 5 mg of MTT (Sigma-Aldrich, St. Louis, Mo., USA) dissolved in 1 ml of PBS was added into each well. After 4 h, medium was removed from each well, 1.0 ml of acid-isopropanol (0.04 N HCI in isopropanol) was added and reduced MTT was solubilized by mixing. Absorbency of the reaction product was measured at a wavelength of 570 nm using a multiplate spectrophotometer reader (Elx800 Model, Bio-TEK Instruments Inc., Winooski, Vt., USA). […] PC-3, LNCAP and Du-145 human prostate cancer cells; MCF-7 human breast cancer cells; HT-1080 human fibrosarcoma cancer cells; B16F1 murine melanoma cells; and, UMUC-3, RT-4, HT-1376 and T-24 human bladder cancer cells were incubated with 0.8, 8.0 and 80 μg/ml of 5.0-7.5 x 10^5 Da HA (Table 2). […] MTT was used at 50 μl per well. HT-1376, RT-4 and T-24 human bladder cancer cells were incubated with 0.8 pg/ml of 5.0-7.5 x 10^5 Da HA +1.0 ug/ml of MCC (Table 5). […] MCF-7 human breast cancer cells; RT-4, T-24, HT-1376 and UMUC-3 human bladder cancer cells; and, PC-3, Du-145 and LNCaP prostate cancer cells (Table 8)
# PC3 tumors [5] = experiment: Example 14: HA, CIS, 5-FU on PC3 tumors in mice; assay type: in vivo, male nude BALB/c mice; conditions: vs Group 1 (saline); intravenously day 0 and at 3 day intervals for 4 weeks; HA 0.16-16.0 mg/kg, CIS or 5-FU 0.1-10.0 mg/kg
# Protocol: PC-3 cancer cells are implanted subcutaneously into 224 male nude BALB/c mice. The mice are divided into 28 groups of 8 mice (Table 14).
# (§8) Saline, HA, CIS, 5-FU, HA+CIS and HA+5FU are administered intravenously in saline on day 0 and at 3 day intervals for 4 weeks (10 injections) at which time the mice are sacrificed and tumor mass and number of metastases are determined.
# LNCaP tumors (CD44 null) [6] = experiment: Example 15: HA, CIS, 5-FU on LNCaP tumors in mice; assay type: in vivo, male nude BALB/c mice; conditions: vs Group 1 (saline); intravenously day 0 and at 3 day intervals for 4 weeks; HA 0.16-16.0 mg/kg, CIS or 5-FU 0.1-10.0 mg/kg
# Protocol: Effect of saline, HA, CIS, 5-FU, HA+CIS andHA+5-FU on LNCaP tumors in mice LNCaP cancer cells (CD44 null) are implanted subcutaneously into 224 male nude BALB/c mice. The mice are divided into 28 groups of 8 mice (Tablel5).
# Saline, HA, CIS, 5-FU, HA+CIS and HA+5FU are administered intravenously in saline on day 0 and at 3 day intervals-for 4 weeks-(1IOinjections) at which time the mice are sacrificed and tumor mass and number of metastasis are determined.
# B16F1 tumors [7] = experiment: Example 16: HA, CIS, 5-FU on B16F1 tumors in mice; assay type: in vivo, female C57BL/6 mice; conditions: vs Group 1 (saline); intravenously day 0 and at 3 day intervals for 4 weeks; HA 0.16-16.0 mg/kg, CIS 0.01-1.0 mg/kg or 5-FU 1.0-100.0 mg/kg
# Protocol: Effect of saline, HA, CIS, 5-FU, HA+CIS and HA+5-FU on B16F1 tumors in mice 5 B16F1 cancer cells are implanted subcutaneously into 224 female C57BL/6 mice. The mice are divided into 28 groups of 8 mice (Table 16).
# as §8
# [8] = target: CD44 cell surface HA receptor (human) (UniProt P16070); experiment: flow cytometry, FITC-CD44 on MCF-7 human breast cancer cells (unstained cells: 3)
# [9] = target: CD44 cell surface HA receptor (human) (UniProt P16070); experiment: flow cytometry, FITC-CD44 on RT-4 human bladder cancer cells (unstained cells: 4)
# [10] = target: CD44 cell surface HA receptor (human) (UniProt P16070); experiment: flow cytometry, FITC-CD44 on T-24 human bladder cancer cells (unstained cells: 3)
# [11] = target: CD44 cell surface HA receptor (human) (UniProt P16070); experiment: flow cytometry, FITC-CD44 on PC-3 human prostate cancer cells (unstained cells: 6)
# [12] = target: CD44 cell surface HA receptor (human) (UniProt P16070); experiment: flow cytometry, FITC-CD44 on UMUC-3 human bladder cancer cells (unstained cells: 3)
# [13] = target: CD44 cell surface HA receptor (human) (UniProt P16070); experiment: flow cytometry, FITC-CD44 on Du-145 human prostate cancer cells (unstained cells: 3)
# [14] = target: CD44 cell surface HA receptor (human) (UniProt P16070); experiment: flow cytometry, FITC-CD44 on HT-1376 human bladder cancer cells (unstained cells: 4)
# PC3 tumors [15] = experiment: Example 11: HA, M-DNA, MCC on PC3 tumors in mice; assay type: in vivo, male nude BALB/c mice; conditions: vs Group 1 (saline); intravenously day 0 and at 3-day intervals for 4 weeks; HA 0.16-16.0 mg/kg, M-DNA or MCC 0.02-2.0 mg/kg
# Protocol: PC-3 human prostate cancer cells are implanted subcutaneously into 224 male nude BALB/c mice. The mice are divided into 28 groups of 8 mice (Table 11).
# (§9) Saline, HA, M-DNA, MCC, HA+M-DNA and HA+MCC are administered intravenously on day 0 and at 3-day intervals for 4 weeks (10 injections) at which time the mice are sacrificed and tumor mass and number of metastases are determined.
# LNCaP tumors (CD44 null) [16] = experiment: Example 12: HA, M-DNA, MCC on LNCaP tumors in mice; assay type: in vivo, male nude BALB/c mice; conditions: vs Group 1 (saline); intravenously day 0 and at 3-day intervals for 4 weeks; HA 0.16-16.0 mg/kg, M-DNA or MCC 0.02-2.0 mg/kg
# Protocol: Effect of saline, HA, M-DNA, MCC, HA+M-DNA and HA +MCC on LNCaP tumors in mice LNCaP human prostate cancer cells (CD44 null) are implanted subcutaneously into 224 male nude BALB/c mice. The mice are divided into 28 groups of 8 mice (Table 12).
# as §9
# B16F1 tumors [17] = experiment: Example 13: HA, M-DNA, MCC on B16F1 tumors in mice; assay type: in vivo, female C57BL/6 mice; conditions: vs Group 1 (saline); intratumorally day 0 and at 3 day intervals for 4 weeks; HA 0.16-16.0 mg/kg, M-DNA or MCC 0.02-2.0 mg/kg
# Protocol: Example 13 Effect of saline, HA, M-DNA, MCC, HA+M-DNA and HA +MCC on B16F1 tumors in mice B16F I cancer cells are implanted […] into 224 female C57BL/6 mice. The mice are divided into 28 groups of 8 mice (Table 13).
# Saline, HA, M-DNA, MCC, HA+M-DNA and HA+MCC are administered intratumorally in saline on day 0 and at 3 day intervals for 4 weeks (10 injections) at which time the mice are sacrificed and tumor mass and number of metastases are determined.
# [18] = test system: B16F10 murine melanoma tumor; conditions: HA 1 mg/ml over 7 days by Alzet osmotic pump into the immediate vicinity of the tumor; cited from earlier work
# colon-26 cancer cells = conditions: HA alone; colon-26 cells express high levels of HA receptors; cited from earlier work
# [19] = test system: rectal, gastric, breast, prostate and endometrial cancers; conditions: HA >750 mg/kg administered with various other therapeutic agents over various periods of time; cited from earlier work
# [20] = test system: MCF-7 human breast cancer cells; experiment: MTT cell proliferation, MCF-7; assay type: cell-based; conditions: Homo sapiens, MCF7, 5-FU at 10 μg/ml alone (saline instead of HA)
# Protocol: as §1, §2, §3, §5, §6
# MTT was used at 50 µl per well.
# Example 8 s HA potentiation of the anti-neoplastic effect ofchemotherapeutic drugs RT-4 human bladder cancer cells and MCF-7 human breast cancer cells were incubated as in Example 6 with 0.0, 0.008 or 0.08 pg/ml of 5.0-7.5 x 10^5 Da HA +0.1 jg/ml of CIS, +1.0 jg/ml of 5-FU or +10 jig/ml of 5-FU (Table 7).
# as §7
# [21] = test system: MCF-7 human breast cancer cells; experiment: MTT cell proliferation, MCF-7; assay type: cell-based; conditions: MCF-7 (2.5 X 10^5 cells/ml); oligonucleotide 100 μg/ml alone (HA 0.0 μg/ml)
# UniProt P16070, sequence (P16070 21-742): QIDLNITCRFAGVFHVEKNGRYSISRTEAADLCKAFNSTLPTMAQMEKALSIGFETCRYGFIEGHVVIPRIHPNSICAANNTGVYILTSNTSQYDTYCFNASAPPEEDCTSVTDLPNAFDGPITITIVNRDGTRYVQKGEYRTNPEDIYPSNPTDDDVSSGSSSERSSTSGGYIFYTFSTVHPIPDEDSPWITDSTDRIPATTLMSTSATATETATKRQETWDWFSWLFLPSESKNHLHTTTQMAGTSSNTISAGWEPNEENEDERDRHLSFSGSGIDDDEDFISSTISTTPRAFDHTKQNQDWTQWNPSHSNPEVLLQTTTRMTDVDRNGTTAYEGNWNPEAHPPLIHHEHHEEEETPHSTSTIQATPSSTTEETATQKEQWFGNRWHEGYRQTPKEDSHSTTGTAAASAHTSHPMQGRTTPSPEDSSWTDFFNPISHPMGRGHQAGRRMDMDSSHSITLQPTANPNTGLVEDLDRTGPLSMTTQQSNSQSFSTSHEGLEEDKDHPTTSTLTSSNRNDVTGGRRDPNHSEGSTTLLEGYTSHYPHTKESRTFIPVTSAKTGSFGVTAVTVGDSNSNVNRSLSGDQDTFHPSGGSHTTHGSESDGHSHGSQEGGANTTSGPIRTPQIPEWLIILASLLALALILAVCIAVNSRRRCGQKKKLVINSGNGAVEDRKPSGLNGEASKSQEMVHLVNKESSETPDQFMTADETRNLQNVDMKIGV
molecule,measurement,setting,value
Hyaluronic acid [<1.5 × 10^4 Da HA],% INHIBITION of cell proliferation,[1]; HA 8.0 μg/ml,5%
same,% INHIBITION of cell proliferation,[2]; HA 8.0 μg/ml,24%
same,% INHIBITION of cell proliferation,[3],37%
"N.N.[Cl][Pt][Cl] [CIS, cisplatin]",% INHIBITION of cell proliferation,[4]; CIS at 0.1 μg/ml alone (saline instead of HA),2%
same,number of metastases,PC3 tumors [5],fewer metastases
same,tumor mass,PC3 tumors [5],less tumor mass
same,number of metastasis,LNCaP tumors (CD44 null) [6],fewer metastases
same,tumor mass,LNCaP tumors (CD44 null) [6],less tumor mass
same,number of metastases,B16F1 tumors [7],fewer metastases
same,tumor mass,B16F1 tumors [7],less tumor mass
"fluorescent anti-HA receptor monoclonal antibody FITC-CD44 (clone G44-26 (C26), Pharmingen)",mean fluorescent units (mean fluorescent units),[8],70
same,mean fluorescent units (mean fluorescent units),[9],60
same,mean fluorescent units (mean fluorescent units),[10],1800
same,mean fluorescent units (mean fluorescent units),[11],400
same,mean fluorescent units (mean fluorescent units),[12],1800
same,mean fluorescent units (mean fluorescent units),[13],450
same,mean fluorescent units (mean fluorescent units),[14],200
Hyaluronic acid [HA],% INHIBITION of cell proliferation,[1]; HA 80.0 μg/ml,30%
same,% INHIBITION of cell proliferation,[2]; HA 80.0 μg/ml,26%
same,number of metastases,PC3 tumors [15],fewer metastases
same,tumor mass,PC3 tumors [15],less tumor mass
same,number of metastases,LNCaP tumors (CD44 null) [16],fewer metastases
same,tumor mass,LNCaP tumors (CD44 null) [16],less tumor mass
same,number of metastases,B16F1 tumors [17],fewer metastases
same,tumor mass,B16F1 tumors [17],less tumor mass
same,number of metastases,PC3 tumors [5],fewer metastases
same,tumor mass,PC3 tumors [5],less tumor mass
same,number of metastasis,LNCaP tumors (CD44 null) [6],fewer metastases
same,tumor mass,LNCaP tumors (CD44 null) [6],less tumor mass
same,number of metastases,B16F1 tumors [7],fewer metastases
same,tumor mass,B16F1 tumors [7],less tumor mass
same,reduced tumor volume,[18],> 85%
same,growth of cancer cells,colon-26 cancer cells,significantly inhibits the growth
same,effect on cancers,[19],reduced or eliminated
"O=c1[nH]cc(F)c(=O)[nH]1 [5-FU, 5-fluorouracil]",inhibition at 10 µg/mL,[20],18%
same,inhibition at 1 µg/mL,"[4]; Homo sapiens, 5-FU at 1.0 μg/ml alone (saline instead of HA)",14%
same,number of metastases,PC3 tumors [5],fewer metastases
same,tumor mass,PC3 tumors [5],less tumor mass
same,number of metastasis,LNCaP tumors (CD44 null) [6],fewer metastases
same,tumor mass,LNCaP tumors (CD44 null) [6],less tumor mass
same,number of metastases,B16F1 tumors [7],fewer metastases
same,tumor mass,B16F1 tumors [7],less tumor mass
GG(GT)1GG: synthetic 6 base oligonucleotide,% INHIBITION of cell proliferation,[21],20%
"(G1T)13G: synthetic 27 base oligonucleotide (GTGTGTGTGTGTGTGTGTGTGTGTGTG; listed as DNA, chemistry not given here)",% INHIBITION of cell proliferation,[21],44%
